Patent publication US8501732B2, “Aminomethyl quinolone compounds” (Hoffmann-La Roche Inc., priority 2011, dated 2013)

Columns and labels:
[1] = target: JNK1 (Homo sapiens (Human), UniProt P45983); assay: In Vitro JNK1 Assay (TR-FRET, phosphorylation of GST-c-Jun); assay type: biochemical; conditions: 0.2 nM active JNK1 kinase, 26.7 nM GST-c-Jun, 2 μM ATP, 30 min at room temperature
Summary of the method: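 GST-c-Jun (residues 1-79) phosphorylation by JNK1 in 50 mM HEPES pH 7.0, MgCl2, 1 mM DTT, 0.1 mM Na3VO4, 0.2 mg/mL BSA, 30 min at room temperature. Stopped with EDTA plus anti-phospho-c-Jun antibody and read by TR-FRET 1 hr later. IC50 from percent inhibition over 10 serial dilutions.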

[2] = tested on: phospho(Ser63)-c-jun in HK-2 cells; assay: Cell-Based Assay for JNK Inhibitors (in-cell ELISA, phospho(Ser63)-c-jun after TNFα); conditions: HK-2 cells (human proximal tubule cells), 60 minutes compound, then 10 ng/mL TNFα for 30 minutes
Summary of the method: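 HK-2 human proximal tubule cells were seeded at 40,000 cells/well, cultured 24 h, then serum-starved 16–24 h before TNFα stimulation with compound. Phospho(Ser63)-c-jun was quantified by in-cell ELISA on fixed, permeabilised cells, using a rabbit phospho-specific primary (overnight, 4 °C) and an HRP-linked anti-rabbit secondary. Absorbance was read at 450 nm.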

Sequence of JNK1 (P45983 whole entry, the tested form may be a part): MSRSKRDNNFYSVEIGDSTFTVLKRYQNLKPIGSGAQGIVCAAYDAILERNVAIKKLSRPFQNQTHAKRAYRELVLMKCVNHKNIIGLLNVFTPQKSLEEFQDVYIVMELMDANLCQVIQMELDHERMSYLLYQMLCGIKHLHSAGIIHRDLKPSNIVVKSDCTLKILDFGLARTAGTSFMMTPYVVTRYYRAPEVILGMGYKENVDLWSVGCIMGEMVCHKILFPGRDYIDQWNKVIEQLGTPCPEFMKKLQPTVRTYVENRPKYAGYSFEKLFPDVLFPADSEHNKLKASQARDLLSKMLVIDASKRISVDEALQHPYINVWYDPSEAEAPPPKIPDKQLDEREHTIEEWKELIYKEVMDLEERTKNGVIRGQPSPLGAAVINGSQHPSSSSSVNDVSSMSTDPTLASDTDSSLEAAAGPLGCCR

`COC(=O)c1c(CNC(=O)c2cnn(C)c2)c(=O)c2ccc(Cl)cc2n1-c1ccccc1` [Example I-121, 7-Chloro-3-{[(1-methyl-1H-pyrazole-4-carbonyl)-amino]-methyl}-4-oxo-1-phenyl-1,4-dihydro-quinoline-2-carboxylic acid methyl ester] gave an IC50 [1] of 15 nM and an EC50 [2] of 1800 nM.

`COC(=O)c1c(CNC(=O)c2ccc(-c3cc[nH]n3)cc2)c(=O)c2ccc(Cl)cc2n1-c1ccccc1` [Example I-122, 7-Chloro-4-oxo-1-phenyl-3-{[4-(1H-pyrazol-3-yl)-benzoylamino]-methyl}-1,4-dihydro-quinoline-2-carboxylic acid methyl ester] gave an IC50 [1] of 15 nM and an EC50 [2] of 3300 nM.

With `COC(=O)c1c(CNC(=O)c2ccc(N3CCOCC3)cc2)c(=O)c2ccc(Cl)cc2n1-c1ccccc1` [Example I-123, 7-Chloro-3-[(4-morpholin-4-yl-benzoylamino)-methyl]-4-oxo-1-phenyl-1,4-dihydro-quinoline-2-carboxylic acid methyl ester] the IC50 [1] was 16 nM and the EC50 [2] was 2200 nM.

`COC(=O)c1c(CNC(=O)c2ccc(-c3cnns3)cc2)c(=O)c2ccc(Cl)cc2n1-c1ccccc1` [Example I-124, 7-Chloro-4-oxo-1-phenyl-3-[(4-[1,2,3]thiadiazol-5-yl-benzoylamino)-methyl]-1,4-dihydro-quinoline-2-carboxylic acid methyl ester] gave an IC50 [1] of 17 nM and an EC50 [2] of 7800 nM.

`COC(=O)c1c(CNC(=O)c2ccc(-c3noc(C)n3)cc2)c(=O)c2ccc(Cl)cc2n1-c1ccccc1` [Example I-125, 7-Chloro-3-{[4-(5-methyl-[1,2,4]oxadiazol-3-yl)-benzoylamino]-methyl}-4-oxo-1-phenyl-1,4-dihydro-quinoline-2-carboxylic acid methyl ester] was tested, and the IC50 [1] was 22 nM and the EC50 [2] was 18000 nM.

`COC(=O)c1c(CNC(=O)c2ccc(-c3nc(C)no3)cc2)c(=O)c2ccc(Cl)cc2n1-c1ccccc1` [Example I-126, 7-Chloro-3-{[4-(3-methyl-[1,2,4]oxadiazol-5-yl)-benzoylamino]-methyl}-4-oxo-1-phenyl-1,4-dihydro-quinoline-2-carboxylic acid methyl ester] showed an IC50 [1] of 29 nM and an EC50 [2] of 14000 nM.

In the case of `COC(=O)c1c(CNC(=O)c2ccc(-c3csc(C)n3)cc2)c(=O)c2ccc(Cl)cc2n1-c1ccccc1` [Example I-127, 7-Chloro-3-{[4-(2-methyl-thiazol-4-yl)-benzoylamino]-methyl}-4-oxo-1-phenyl-1,4-dihydro-quinoline-2-carboxylic acid methyl ester], the IC50 [1] is reported as 31 nM and the EC50 [2] is reported as 38000 nM.

`COC(=O)c1c(CNC(=O)C2CCN(C(=O)OC(C)(C)C)CC2)c(=O)c2ccc(Cl)cc2n1-c1ccccc1` [Example I-128, 3-{[(1-tert-Butoxycarbonyl-piperidine-4-carbonyl)-amino]-methyl}-7-chloro-4-oxo-1-phenyl-1,4-dihydro-quinoline-2-carboxylic acid methyl ester] showed an IC50 [1] of 35 nM and an EC50 [2] of 100000 nM.

For `COC(=O)c1c(CNC(=O)c2ccc(-c3nnn(C)n3)cc2)c(=O)c2ccc(Cl)cc2n1-c1ccccc1` [Example I-129, 7-Chloro-3-{[4-(2-methyl-2H-tetrazol-5-yl)-benzoylamino]-methyl}-4-oxo-1-phenyl-1,4-dihydro-quinoline-2-carboxylic acid methyl ester], the IC50 [1] was 50 nM and the EC50 [2] was 11000 nM.

Compound `COC(=O)c1c(CNC(=O)C2CCN(C(C)=O)CC2)c(=O)c2ccc(Cl)cc2n1-c1ccccc1` [Example I-130, 3-{[(1-Acetyl-piperidine-4-carbonyl)-amino]-methyl}-7-chloro-4-oxo-1-phenyl-1,4-dihydro-quinoline-2-carboxylic acid methyl ester] has an IC50 [1] of 220 nM and an EC50 [2] of 100000 nM.

`COC(=O)c1c(CNC(=O)c2ccc(Cl)cc2)c(=O)c2ccc(Cl)cc2n1-c1ccccc1` [Example I-132, 7-Chloro-3-[(4-chloro-benzoylamino)-methyl]-4-oxo-1-phenyl-1,4-dihydro-quinoline-2-carboxylic acid methyl ester] showed an IC50 [1] of 15 nM and an EC50 [2] of 9200 nM.

For `COC(=O)c1ccc(C(=O)NCc2c(C(=O)OC)n(-c3ccccc3)c3cc(Cl)ccc3c2=O)cc1` [Example I-133, 7-Chloro-3-[(4-methoxycarbonyl-benzoylamino)-methyl]-4-oxo-1-phenyl-1,4-dihydro-quinoline-2-carboxylic acid methyl ester], the IC50 [1] was 6 nM and the EC50 [2] was 13000 nM.

Work on `COC(=O)c1c(CNC(=O)c2ccc(OC)cc2)c(=O)c2ccc(Cl)cc2n1-c1ccccc1` [Example I-134, 7-Chloro-3-[(4-methoxybenzoylamino)-methyl]-4-oxo-1-phenyl-1,4-dihydro-quinoline-2-carboxylic acid methyl ester] yielded an IC50 [1] of 7 nM and an EC50 [2] of 1900 nM.

`COC(=O)c1c(CNC(=O)c2cccc(OC)c2)c(=O)c2ccc(Cl)cc2n1-c1ccccc1` [Example I-135, 7-Chloro-3-[(3-methoxybenzoylamino)-methyl]-4-oxo-1-phenyl-1,4-dihydro-quinoline-2-carboxylic acid methyl ester] gave an IC50 [1] of 8 nM and an EC50 [2] of 4800 nM.

`COC(=O)c1c(CNC(=O)c2ccncc2)c(=O)c2ccc(Cl)cc2n1-c1ccccc1` [Example I-136, 7-Chloro-4-oxo-1-phenyl-3-{[(pyridine-4-carbonyl)-amino]-methyl}-1,4-di-hydro-quinoline-2-carboxylic acid methyl ester] gave an IC50 [1] of 12 nM and an EC50 [2] of 7900 nM.

`COC(=O)c1c(CNC(=O)c2cccc(F)c2)c(=O)c2ccc(Cl)cc2n1-c1ccccc1` [Example I-138, 7-Chloro-3-[(3-fluoro-benzoylamino)-methyl]-4-oxo-1-phenyl-1,4-dihydro-quinoline-2-carboxylic acid methyl ester] was tested, and the IC50 [1] was 13 nM and the EC50 [2] was 10000 nM.

For `COC(=O)c1c(CNC(=O)c2cccnc2)c(=O)c2ccc(Cl)cc2n1-c1ccccc1` [Example I-139, 7-Chloro-4-oxo-1-phenyl-3-{[(pyridine-3-carbonyl)-amino]-methyl}-1,4-dihydro-quinoline-2-carboxylic acid methyl ester], the IC50 [1] was 13 nM and the EC50 [2] was 9800 nM.

`COC(=O)c1c(CNC(=O)c2ccc(F)cc2)c(=O)c2ccc(Cl)cc2n1-c1ccccc1` [Example I-140, 7-Chloro-3-[(4-fluoro-benzoylamino)-methyl]-4-oxo-1-phenyl-1,4-dihydro-quinoline-2-carboxylic acid methyl ester] gave an IC50 [1] of 14 nM and an EC50 [2] of 10000 nM.

`COC(=O)c1c(CNC(=O)c2ccc(F)c(Cl)c2)c(=O)c2ccc(Cl)cc2n1-c1ccccc1` [Example I-141, 7-Chloro-3-[(3-chloro-4-fluoro-benzoylamino)-methyl]-4-oxo-1-phenyl-1,4-dihydro-quinoline-2-carboxylic acid methyl ester] gave an IC50 [1] of 15 nM and an EC50 [2] of 7000 nM.

Compound `COC(=O)c1c(CNC(=O)c2cccc(Cl)c2)c(=O)c2ccc(Cl)cc2n1-c1ccccc1` [Example I-142, 7-Chloro-3-[(3-chloro-benzoylamino)-methyl]-4-oxo-1-phenyl-1,4-dihydro-quinoline-2-carboxylic acid methyl ester] has an IC50 [1] of 17 nM and an EC50 [2] of 9700 nM.

`COC(=O)c1c(CNC(=O)c2ccc(OC)c(OC)c2)c(=O)c2ccc(Cl)cc2n1-c1ccccc1` [Example I-143, 7-Chloro-3-[(3,4-dimethoxy-benzoylamino)-methyl]-4-oxo-1-phenyl-1,4-dihydro-quinoline-2-carboxylic acid methyl ester] showed an IC50 [1] of 39 nM and an EC50 [2] of 1000 nM.
